According to PubChem BioAssay (NCI):
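How tested: cells in 96-well plates exposed to compound for 48 hours at five concentrations. GI50 is the concentration that inhibits growth by half. Definition used: TGI = concentration required for complete inhibition of growth.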

Columns and labels:
Assay in all cases: growth of human tumour cells (NCI), 48 h
M19-MEL melanoma = system: M19-MEL melanoma
COLO 205 colon = system: COLO 205 colon
M14 melanoma = system: M14 melanoma
SNB-75 CNS = system: SNB-75 CNS
EKVX NSCLC = system: EKVX NSCLC
A498 renal = system: A498 renal
TK-10 renal = system: TK-10 renal
HCC-2998 colon = system: HCC-2998 colon
HCT-15 colon = system: HCT-15 colon
DMS 114 small cell lung = system: DMS 114 small cell lung
RPMI-8226 leukemia = system: RPMI-8226 leukemia
ACHN renal = system: ACHN renal
HCT-116 colon = system: HCT-116 colon
UACC-62 melanoma = system: UACC-62 melanoma
OVCAR-8 ovarian = system: OVCAR-8 ovarian
SK-MEL-2 melanoma = system: SK-MEL-2 melanoma
SK-MEL-5 melanoma = system: SK-MEL-5 melanoma
KM20L2 colon = system: KM20L2 colon
MOLT-4 leukemia = system: MOLT-4 leukemia
NCI-H522 lung = system: NCI-H522 lung
SF-295 CNS = system: SF-295 CNS
NCI-H226 lung = system: NCI-H226 lung
K-562 leukemia = system: K-562 leukemia
UACC-257 melanoma = system: UACC-257 melanoma
786-0 renal = system: 786-0 renal
LXFL 529 NSCLC = system: LXFL 529 NSCLC
HOP-62 NSCLC = system: HOP-62 NSCLC
A549 NSCLC = system: A549 NSCLC
OVCAR-3 ovarian = system: OVCAR-3 ovarian
CCRF-CEM leukemia = system: CCRF-CEM leukemia
NCI-H460 lung = system: NCI-H460 lung
CAKI-1 renal = system: CAKI-1 renal
DMS 273 small cell lung = system: DMS 273 small cell lung
UO-31 renal = system: UO-31 renal
DLD-1 colon = system: DLD-1 colon
SK-MEL-28 melanoma = system: SK-MEL-28 melanoma
OVCAR-5 ovarian = system: OVCAR-5 ovarian
OVCAR-4 ovarian = system: OVCAR-4 ovarian
RXF 393 renal = system: RXF 393 renal
SF-268 CNS = system: SF-268 CNS
HOP-92 NSCLC = system: HOP-92 NSCLC
XF 498 CNS = system: XF 498 CNS
SF-539 CNS = system: SF-539 CNS
SW-620 colon = system: SW-620 colon
SNB-19 CNS = system: SNB-19 CNS
HL-60(TB) leukemia = system: HL-60(TB) leukemia
MALME-3M melanoma = system: MALME-3M melanoma
SNB-78 CNS = system: SNB-78 CNS
IGROV1 ovarian = system: IGROV1 ovarian
SK-OV-3 ovarian = system: SK-OV-3 ovarian
HT29 colon = system: HT29 colon
KM12 colon = system: KM12 colon
NCI-H23 lung = system: NCI-H23 lung
LOX IMVI melanoma = system: LOX IMVI melanoma
SN12C renal = system: SN12C renal
U251 CNS = system: U251 CNS

CCCCCCC[CH2][Sn]([Cl])([Cl])[CH2]CCCCCCC
GI50 (M19-MEL melanoma): 9.31 µM
TGI (M19-MEL melanoma): 21.3 µM
GI50 (COLO 205 colon): 6 µM
TGI (COLO 205 colon): 17.3 µM
GI50 (M14 melanoma): 6.94 µM
TGI (M14 melanoma): 19.5 µM
GI50 (SNB-75 CNS): 3.67 µM
TGI (SNB-75 CNS): 18.1 µM
GI50 (EKVX NSCLC): 10.4 µM
TGI (EKVX NSCLC): 22.2 µM
GI50 (A498 renal): 6.51 µM
TGI (A498 renal): 18.8 µM
GI50 (TK-10 renal): 16 µM
TGI (TK-10 renal): 29.4 µM
GI50 (HCC-2998 colon): 4.23 µM
TGI (HCC-2998 colon): 17 µM
GI50 (HCT-15 colon): 5.69 µM
TGI (HCT-15 colon): 18.7 µM
GI50 (DMS 114 small cell lung): 3.93 µM
TGI (DMS 114 small cell lung): 13.9 µM
GI50 (RPMI-8226 leukemia): 2.24 µM
TGI (RPMI-8226 leukemia): 12.6 µM
GI50 (ACHN renal): 7.17 µM
TGI (ACHN renal): 19.9 µM
GI50 (HCT-116 colon): 3.66 µM
TGI (HCT-116 colon): 15.3 µM
GI50 (UACC-62 melanoma): 2.05 µM
TGI (UACC-62 melanoma): 4.97 µM
GI50 (OVCAR-8 ovarian): 4.46 µM
TGI (OVCAR-8 ovarian): 16.6 µM
GI50 (SK-MEL-2 melanoma): 2.45 µM
TGI (SK-MEL-2 melanoma): 7.47 µM
GI50 (SK-MEL-5 melanoma): 6.88 µM
TGI (SK-MEL-5 melanoma): 19.4 µM
GI50 (KM20L2 colon): 11.1 µM
TGI (KM20L2 colon): 23.2 µM
GI50 (MOLT-4 leukemia): 2.96 µM
TGI (MOLT-4 leukemia): 10.5 µM
GI50 (NCI-H522 lung): 2.3 µM
TGI (NCI-H522 lung): 4.95 µM
GI50 (SF-295 CNS): 12.5 µM
TGI (SF-295 CNS): 25 µM
GI50 (NCI-H226 lung): 10.1 µM
TGI (NCI-H226 lung): 22.4 µM
GI50 (K-562 leukemia): 3.66 µM
TGI (K-562 leukemia): 19.7 µM
GI50 (UACC-257 melanoma): 4.38 µM
TGI (UACC-257 melanoma): 15.9 µM
GI50 (786-0 renal): 4.58 µM
TGI (786-0 renal): 17.1 µM
GI50 (LXFL 529 NSCLC): 3.05 µM
TGI (LXFL 529 NSCLC): 10.8 µM
GI50 (HOP-62 NSCLC): 14.5 µM
TGI (HOP-62 NSCLC): 27.5 µM
GI50 (A549 NSCLC): 17.5 µM
TGI (A549 NSCLC): 34.3 µM
GI50 (OVCAR-3 ovarian): 4.91 µM
TGI (OVCAR-3 ovarian): 17 µM
GI50 (CCRF-CEM leukemia): 3.27 µM
TGI (CCRF-CEM leukemia): 10.9 µM
GI50 (NCI-H460 lung): 13.2 µM
TGI (NCI-H460 lung): 26.8 µM
GI50 (CAKI-1 renal): 11 µM
TGI (CAKI-1 renal): 23.2 µM
GI50 (DMS 273 small cell lung): 4.9 µM
TGI (DMS 273 small cell lung): 16.8 µM
GI50 (UO-31 renal): 10.6 µM
TGI (UO-31 renal): 22.4 µM
GI50 (DLD-1 colon): 5.37 µM
TGI (DLD-1 colon): 17.6 µM
GI50 (SK-MEL-28 melanoma): 3.82 µM
TGI (SK-MEL-28 melanoma): 12.9 µM
GI50 (OVCAR-5 ovarian): 13.3 µM
TGI (OVCAR-5 ovarian): 26.2 µM
GI50 (OVCAR-4 ovarian): 10.5 µM
TGI (OVCAR-4 ovarian): 22.4 µM
GI50 (RXF 393 renal): 2.7 µM
TGI (RXF 393 renal): 9.01 µM
GI50 (SF-268 CNS): 4.11 µM
TGI (SF-268 CNS): 15.4 µM
GI50 (HOP-92 NSCLC): 5.27 µM
TGI (HOP-92 NSCLC): 18.4 µM
GI50 (XF 498 CNS): 4.9 µM
TGI (XF 498 CNS): 16.5 µM
GI50 (SF-539 CNS): 4.36 µM
TGI (SF-539 CNS): 16.6 µM
GI50 (SW-620 colon): 6.66 µM
TGI (SW-620 colon): 19.3 µM
GI50 (SNB-19 CNS): 7.15 µM
TGI (SNB-19 CNS): 20 µM
GI50 (HL-60(TB) leukemia): 3.29 µM
TGI (HL-60(TB) leukemia): 11.2 µM
GI50 (MALME-3M melanoma): 5.2 µM
TGI (MALME-3M melanoma): 18.1 µM
GI50 (SNB-78 CNS): 6.25 µM
TGI (SNB-78 CNS): 21.4 µM
GI50 (IGROV1 ovarian): 7.61 µM
TGI (IGROV1 ovarian): 20.3 µM
GI50 (SK-OV-3 ovarian): 16.6 µM
TGI (SK-OV-3 ovarian): 30.2 µM
GI50 (HT29 colon): 6.83 µM
TGI (HT29 colon): 20 µM
GI50 (KM12 colon): 5.98 µM
TGI (KM12 colon): 18.8 µM
GI50 (NCI-H23 lung): 6.84 µM
TGI (NCI-H23 lung): 18.8 µM
GI50 (LOX IMVI melanoma): 3.56 µM
TGI (LOX IMVI melanoma): 11.5 µM
GI50 (SN12C renal): 7.41 µM
TGI (SN12C renal): 19.9 µM
GI50 (U251 CNS): 2.21 µM
TGI (U251 CNS): 6.09 µM
